Reference: publication PMC6107127, “Characteristics of the mitochondrial and cellular uptake of MPP^+, as probed by the fluorescent mimic, 4'I-MPP^+” (PLoS ONE, 2018)

Key:
HepG2 cells [1] = details: 5 μM FCCP 30 min, then 50 μM toxin 45 min; in comparison to MN9D cells
Description: (§1) Cells grown in 12-well plates were washed and incubated with 5 μM FCCP in KRB-HEPES for 30 min followed by 50 μM MPP^+ or 4'I-MPP^+ in the same buffer for 45 min at 37 °C. After the incubations, cells were washed with ice-cold KRB-HEPES and treated with 0.1 M HClO4. The intracellular MPP^+ or 4'I-MPP^+ contents of HClO4 extracts were quantified by HPLC-UV as detailed above. The controls were treated under the same conditions except that FCCP was omitted from the initial incubation. All uptake data were normalized to the respective protein concentration of each sample. To visualize the effect of FCCP on the mitochondrial accumulation of 4'I-MPP^+, cells were grown in glass bottomed plates and incubated with 5 μM FCCP in KRB-HEPES for 30 min followed by 100 μM 4'I-MPP^+ for 1 h at 37 °C. Then cells were washed and reconstituted with 1 mL of KRB-HEPES and the intracellular 4'I-MPP^+ fluorescence (Ex/Em 340/470-550 nm) were recorded.

MN9D cells [2] = details: 5 μM FCCP 30 min, then 50 μM toxin 45 min
Description: as §1

[3] = system: isolated intact MN9D mitochondria; assay: Effects of Ca2+ and inhibitors on MN9D mitochondrial uptake of 4'I-MPP+; parameters: species or system mouse; details: for 4'I-MPP+ uptake inhibition: 200 μM 4'I-MPP+
Description: Intact MN9D cell mitochondria were incubated with 200 μM 4'I-MPP^+ for 45 min at 37 °C in 0, 500 or 1000 nM Ca^2+ containing KCl buffer. When mNCX inhibitors (KBR7943, 2APB and CGP37157) were used, mitochondrial suspensions were initially incubated with 10, 25 or 50 μM inhibitor in KCl buffer for 10 min at 37 °C and then with 200 μM 4'I- MPP^+ for 45 min at 37 °C. After the incubations, samples were centrifuged at 7,000 x g at 4 °C for 10 min and the mitochondrial pellets were treated with 75 μL of 0.1 M HClO4. […] To visualize the effect of CGP37157 on the mitochondrial uptake of 4'I-MPP^+ in live cells, HepG2 cells grown in glass-bottomed plates were incubated with 50 μM CGP37157 for 30 min initially and then with 100 μM 4'I-MPP^+ and 200 nM MitoTracker Green FM in KRB-HEPES for 1 h at 37 °C. After incubation cells were washed and reconstituted with KRB-HEPES, pH 7.4 and 4'I-MPP^+ and MitoTracker Green FM fluorescence images of cells were recorded as detailed above. Controls were treated under the same experimental conditions, except that CGP37157 was omitted from the initial incubation.
S4 Fig. Effects of Benzamil, Verapamil, FFA, and ruthenium red on the MN9D mitochondrial uptake of 4'I-MPP+. MN9D mitochondrial suspensions were initially incubated with a 50 μM concentration of the desired agent (10 μM Ruthenium red) in KCl buffer for 10 min at 37 °C and then incubated with 200 μM 4'I-MPP+ for 45 min at 37 °C. After the incubations, the […] 4'I-MPP+ contents were quantified by RP-HPLC-UV as described in Material and methods. The data are represented as mean ± S.D (n=3).
(also on this page, place not known: contol 10uM Ru red BenzamilVerapamil FFA 4I' MPP+ uptake (nmoles/mg) 0.0 0.1 0.2 0.3 0.4 0.5)
(1 picture or pasted object on this page, not shown here)

HepG2 cells [4] = assay: Effect of CGP37157 and KBR7943 on 4'I-MPP+-mediated mitochondrial membrane depolarization (TMRM); assay type: cell-based, human
Description: HepG2 cells grown in glass-bottomed plates for two days were treated with 50 μM CGP37157 or KBR7943 in KRB-HEPES for 30 min followed by 50 nM TMRM in KRB-HEPES for 45 min. Then plates were mounted on the stage of the microscope and mitochondrial membrane depolarization upon the treatment with 100 μM 4'I-MPP^+ was measured as a function of time as detailed above. The effect of CGP37157 on the 4'I-MPP^+ mediated mitochondrial membrane depolarization at longer time periods was monitored by observing the reduction of TMRM fluorescence from 0 to 4 h incubations in the presence or absence of CGP37157. HepG2 cells were incubated with or without 10 μM CGP37157 followed by 50 nM TMRM, and finally with 4'I-MPP^+ (100 μM, 0 or 4 h) and the intracellular TMRM fluorescence was recorded. Controls were carried out using an identical protocol except that either CGP37157 or 4'I-MPP^+ were omitted from the incubation media.

MN9D cells [5] = assay: Protection of MN9D cells from MPP+ and 4'I-MPP+ toxicities (MTT); assay type: cell-based, mouse; details: 0–50 μM CGP37157 30 min, then 80 μM MPP+ or 25 μM 4'I-MPP+ for 8 h
Description: Cell viability was determined by the MTT [3-(4,5-dimethylthiazol-2-yl)-2,5-diphenyltetrazolium bromide)] assay. Briefly, cells were seeded on 96-well plates and allowed to grow to about 70–80% confluence. Prior to the experiment, culture media was replaced with KRB-HCO3^- containing desired concentrations of MPP^+ or 4'I-MPP^+ and incubated for 16 h at 37 °C. After the incubation, 10 μL of 5 mg/mL MTT solution was added to each well and incubated for 2 h at 37 °C. The resulting formazan was solubilized by the addition of 210 μL detergent solution [50% DMF/H2O (v/v), 20% SDS (w/v)] followed by incubation at 37 °C for 12 h. The cell viabilities were determined by quantifying solubilized formazan by measuring the difference in the absorbance at 570 nm and 650 nm. Results were expressed as % viability of MPP^+ or 4'I-MPP^+ treated cells with respect to control cells, which were treated under the same conditions except in the absence of the MPP^+ or 4'I-MPP^+.
Fig 7 CGP37157 protect MN9D cells from MPP^+ and 4'I-MPP^+ toxicities. Cells were pre-incubated with 0–50 μM CGP37157 for 30 min followed by 80 μM MPP^+ or 25 μM 4'I-MPP^+ for 8 h. The relative cell viabilities were determiner using MTT assay, as detailed above. Data are presented as mean ± SD (n = 6). ٭p<0.0001 and #p<0.005 versus no CGP37157 controls.

Row | SMILES | effect on cellular accumulation of MPP+ and 4'I-MPP+ (HepG2 cells [1]) | effect on cellular accumulation of MPP+ and 4'I-MPP+ (MN9D cells [2]) | 4'I-MPP+ uptake inhibition ([3]; 10 μM inhibitor) | 4'I-MPP+ uptake inhibition ([3]; 25 μM inhibitor) | effect on uptake of 4'I-MPP+ ([3]; 50 μM inhibitor at 200 μM 4'I-MPP+) | effect on 4'I-MPP+-induced mitochondrial membrane depolarization, longer incubation (HepG2 cells [4]; 10 μM CGP37157, 100 μM 4'I-MPP+, lasting at least 4 h) | effect on 4'I-MPP+ mitochondrial membrane depolarization (HepG2 cells [4]; 50 μM pre-treatment 30 min, 100 μM 4'I-MPP+) | protection from MPP+ and 4'I-MPP+ toxicities (MN9D cells [5])
1 | N#CC(C#N)=NNc1ccc(OC(F)(F)F)cc1 [FCCP, carbonyl cyanide-p-trifluoromethoxyphenylhydrazone] | stronger effect | significantly decreased |  |  |  |  |  | 
2 | O=C1CSC(c2ccccc2Cl)c2cc(Cl)ccc2N1 (centres unmarked) [CGP37157] |  |  | about 40% | ~ 45% | inhibit the uptake | slows down | significantly reduced | effectively protects
